Reference: patent US7235577B1 (priority 2000, dated 2007)

Assays:
[1] = target: T1, rKv4.2 (Rattus norvegicus, UniProt Q63881); assay: Selectivity patch clamp, LTK cells expressing rKv4.2; type: cell-based
T1 construct: expressed in transfected cells; host or cells: LTK (dexamethasone-induced)
Experimental: (§1) L929 cells stably expressing mKv1.1, rKv1.2, mKv1.3, and mKv3.1 and MEL cells stably expressing hKv1.5 have been previously described (Grissmer 1994, Mol. Pharmacol. 45: 1227). hKv1.4 and rKv4.2 were stably expressed in LTK (HK1–7). Channel expression was induced 8–12 h before the electrophysiological experiments by 4 μM dexamethasone (Sigma). HEK-293 cells stably expressing the skeletal muscle sodium channel hSkM1 (SCN4A) were generated in the laboratory of Dr. F. Lehmann-Horn. HEK-293 cells stably expressing hSloα were obtained from Dr. Andrew Tinker (Center for Clinical Pharmacology, University College London). L929, MEL, LTK and HEK cells were maintained in DMEM containing 10% heat-inactivated fetal calf serum (Summit Biotechnology, Fort Collins, Colo.) and 250 μg/ml G418 (Life Technologies, Inc.). Rat basophilic leukemia (RBL) cells were maintained in Eagle's minimum essential medium with 2 mM L-glutamine and 10% fetal calf serum. CHO cell were maintained in F12K media (ATCC). Human leukemic Jurkat E6–1 cells were cultured in RPMI 1640 supplemented with 10% fetal calf serum and 1 mM L-glutamine. T84 cells were maintained in a 1:1 mixture of Ham's F12 medium and DMEM with 2.5 mM L-glutamine and 10% fetal calf serum.
(§2) Recordings from the Jurkat SKCa channel were made in K^+ aspartate Ringer (Na^+ was replaced by K^+) with the same internal pipette solution. […]

[2] = target: T2, rKv1.2 (Rattus norvegicus, UniProt P63142); assay: Selectivity patch clamp, L929 cells expressing rKv1.2; type: cell-based
T2 construct: expressed in transfected cells; host or cells: L929
Experimental: as §1, §2

[3] = test system: COS-7 chloride channel; assay: Selectivity patch clamp, native chloride channels in COS-7 cells; type: cell-based, African green monkey; conditions: native chloride channel of COS-7 cells
Experimental: Electrophysiological experiments were carried out in the whole-cell configuration of the patch-clamp technique using an EPC-9 amplifier (HEKA Elektronik, Lambrecht Germany) interfaced to a computer running acquisition and analysis software (Pulse and Pulsfit; HEKA Elektronik). Pipettes were pulled from soft glass capillaries, coated with Sylgard (Dow-Corning, Midland, Mich.), and fire polished to resistances of 2.0–4.5 MΩ measured in the bath. COS-7 cells were trypsinized and plated on glass coverslips 3 h before measurement. […] To prevent activation of the native chloride channels in COS-7 cells an aspartate Ringer solution was used as an external solution (160 mM Na^+ aspartate, 4.5 mM KCl, 2 mM CaCl2, 1 mM MgCl2, 5 mM HEPES, adjusted to pH 7.4 with NaOH, with an osmolarity of 290–310 mosM). 200 ms voltage ramps from −120 mV to 40 mV every 10 s were used. The holding potential in all experiments was −80 mV. Series resistance compensation was not employed. The reduction of slope conductance at −80 mV was used to determine the Kd-value by fitting the values to the Hill equation with a Hill coefficient of unity.
as §2

[4] = target: T3, hKv1.5 (Homo sapiens, UniProt P22460); assay: Selectivity patch clamp, MEL cells expressing hKv1.5; type: cell-based
T3 construct: expressed in transfected cells; host or cells: MEL
Experimental: as §1, §2

[5] = target: T4, HSKM1 (Homo sapiens, UniProt P35499); assay: Selectivity patch clamp, HEK-293 cells expressing skeletal muscle sodium channel hSkM1 (SCN4A); type: cell-based
T4 construct: expressed in transfected cells; host or cells: HEK-293
Experimental: as §1, §2

[6] = logP
[7] = test system: CF-1 BR mice; assay: ISO acute systemic toxicity study; conditions: single i.v. 0.5 mg/kg
Experimental: An ISO acute systemic toxicity study was performed in CF-1 BR mice (17–19 g) according to the guidelines of the United States Pharmacopeia XXII. […] Five control mice were injected with an equal volume of the vehicle. The mice were weighed at the beginning of the study and at its termination.

[8] = target: T5, mKv3.1 (Mus musculus, UniProt P15388); assay: Selectivity patch clamp, L929 cells expressing mKv3.1; type: cell-based
T5 construct: expressed in transfected cells; host or cells: L929
Experimental: as §1, §2

[9] = test system: NLF cells; assay: In vitro toxicity, propidium iodide uptake, 48 h; type: cell-based, human
Experimental: (§3) The in vitro toxicity was performed as follows.

[10] = test system: C2F3 cells; assay: In vitro toxicity, propidium iodide uptake, 48 h; type: cell-based, human
Experimental: as §3

[11] = test system: Jurkat E6-1 cells; assay: In vitro toxicity, propidium iodide uptake, 48 h; type: cell-based, human
Experimental: as §3

[12] = test system: NGP cells; assay: In vitro toxicity, propidium iodide uptake, 48 h; type: cell-based, human
Experimental: as §3

[13] = target: T6, mKv1.1 (Mus musculus, UniProt P16388); assay: Selectivity patch clamp, L929 cells expressing mKv1.1; type: cell-based
T6 construct: expressed in transfected cells; host or cells: L929
Experimental: as §1, §2

[14] = target: T7, hKv1.4 (Homo sapiens, UniProt P22459); assay: Selectivity patch clamp, LTK cells expressing hKv1.4; type: cell-based
T7 construct: expressed in transfected cells; host or cells: LTK (dexamethasone-induced)
Experimental: as §1, §2

[15] = target: T8, mKv1.3 (Mus musculus, UniProt P16390); assay: Selectivity patch clamp, L929 cells expressing mKv1.3; type: cell-based
T8 construct: expressed in transfected cells; host or cells: L929
Experimental: as §1, §2

[16] = test system: ten cell lines; assay: In vitro toxicity, summary over the ten cell lines; conditions: at a concentration 100–250 times the Kd for IKCa1 channel block
Experimental: The in vitro toxicity was performed as follows. Jurkat E6-1, MEL, C2F3, NGP, NLF cells and human T-lymphocytes were seeded at 5×10^5 cells/ml, and L929, COS-7, CHO and RBL cells were seeded at 10^5 cells/ml in twelve-well plates. Drug (2 or 5 μM) was added in a final DMSO concentration of 0.1%. After 48 h of incubation at 37° C. with 5% CO2, cells were harvested by sucking them off the plates (suspension cells) or by trypsinization (adherent cell lines). Cells were centrifuged, resuspended in 0.5 ml PBS containing 1 μg/ml propidium iodide (PI), and red fluorescence measured on a FACScan flow cytometer after 20 min, 10^4 cells of every sample being analyzed. The percentage of dead cells was determined by their PI uptake. Two controls for every cell line (one in medium and one with 0.1% DMSO) were also analyzed.

[17] = target: T9, rKir2.1 (Rattus norvegicus, UniProt Q64273); assay: Selectivity patch clamp, RBL inward rectifier; type: cell-based; conditions: RBL cells; slope conductance at −110 mV
T9 construct: endogenous in cells; host or cells: RBL (rat basophilic leukemia)
Experimental: as §1, §2

[18] = test system: RBL-2H3 cells; assay: In vitro toxicity, propidium iodide uptake, 48 h; type: cell-based, rat
Experimental: as §3

T9 sequence (Q64273 whole entry): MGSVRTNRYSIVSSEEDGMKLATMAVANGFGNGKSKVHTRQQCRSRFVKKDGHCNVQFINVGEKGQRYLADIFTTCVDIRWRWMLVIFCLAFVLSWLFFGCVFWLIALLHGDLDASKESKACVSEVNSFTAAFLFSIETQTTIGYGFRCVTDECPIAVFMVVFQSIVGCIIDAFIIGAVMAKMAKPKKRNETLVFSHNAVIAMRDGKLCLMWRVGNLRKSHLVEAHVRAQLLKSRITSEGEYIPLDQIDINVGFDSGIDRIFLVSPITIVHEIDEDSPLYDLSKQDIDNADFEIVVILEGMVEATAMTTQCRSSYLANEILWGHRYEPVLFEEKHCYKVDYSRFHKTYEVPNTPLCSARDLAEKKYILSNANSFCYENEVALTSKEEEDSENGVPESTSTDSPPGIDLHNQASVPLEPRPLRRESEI
T2 sequence (P63142 whole entry): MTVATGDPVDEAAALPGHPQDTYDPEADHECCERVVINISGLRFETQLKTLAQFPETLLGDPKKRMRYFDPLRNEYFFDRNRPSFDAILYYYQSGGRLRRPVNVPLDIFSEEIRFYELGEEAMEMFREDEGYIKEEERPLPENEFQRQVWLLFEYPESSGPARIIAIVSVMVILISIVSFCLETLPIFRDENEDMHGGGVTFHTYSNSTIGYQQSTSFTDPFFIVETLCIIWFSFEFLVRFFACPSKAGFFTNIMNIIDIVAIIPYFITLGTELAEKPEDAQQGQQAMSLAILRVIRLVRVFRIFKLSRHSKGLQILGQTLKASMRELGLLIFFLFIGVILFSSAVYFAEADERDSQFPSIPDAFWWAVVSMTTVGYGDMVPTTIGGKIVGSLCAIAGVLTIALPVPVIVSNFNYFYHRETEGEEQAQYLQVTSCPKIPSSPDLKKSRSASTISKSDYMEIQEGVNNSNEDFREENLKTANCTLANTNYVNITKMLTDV
T6 sequence (P16388 whole entry): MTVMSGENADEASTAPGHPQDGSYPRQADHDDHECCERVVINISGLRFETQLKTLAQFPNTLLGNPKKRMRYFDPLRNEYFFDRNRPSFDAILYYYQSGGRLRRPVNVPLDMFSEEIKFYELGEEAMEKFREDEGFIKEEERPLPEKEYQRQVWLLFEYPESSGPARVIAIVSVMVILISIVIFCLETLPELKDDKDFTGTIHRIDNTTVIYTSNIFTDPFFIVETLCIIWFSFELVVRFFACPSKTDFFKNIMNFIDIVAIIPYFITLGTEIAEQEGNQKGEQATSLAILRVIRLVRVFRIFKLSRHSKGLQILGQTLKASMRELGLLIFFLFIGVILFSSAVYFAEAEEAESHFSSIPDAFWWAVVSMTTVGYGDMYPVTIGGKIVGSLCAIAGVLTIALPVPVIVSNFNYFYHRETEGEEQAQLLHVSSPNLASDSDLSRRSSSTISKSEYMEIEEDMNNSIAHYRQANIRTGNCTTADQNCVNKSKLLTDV
T8 sequence (P16390 whole entry): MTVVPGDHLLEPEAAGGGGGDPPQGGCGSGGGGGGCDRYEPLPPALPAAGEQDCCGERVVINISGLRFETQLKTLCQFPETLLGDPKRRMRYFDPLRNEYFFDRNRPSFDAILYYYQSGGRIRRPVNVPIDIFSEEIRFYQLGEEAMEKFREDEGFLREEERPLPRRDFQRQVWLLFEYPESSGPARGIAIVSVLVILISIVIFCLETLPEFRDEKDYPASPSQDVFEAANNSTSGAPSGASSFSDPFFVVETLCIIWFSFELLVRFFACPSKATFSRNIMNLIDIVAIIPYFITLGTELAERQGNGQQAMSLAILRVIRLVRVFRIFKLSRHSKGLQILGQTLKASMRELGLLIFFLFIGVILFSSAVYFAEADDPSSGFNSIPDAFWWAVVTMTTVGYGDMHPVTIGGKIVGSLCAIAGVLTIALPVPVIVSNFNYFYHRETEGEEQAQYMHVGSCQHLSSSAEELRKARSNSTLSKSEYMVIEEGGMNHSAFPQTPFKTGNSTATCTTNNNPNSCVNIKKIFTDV
T7 sequence (P22459 whole entry): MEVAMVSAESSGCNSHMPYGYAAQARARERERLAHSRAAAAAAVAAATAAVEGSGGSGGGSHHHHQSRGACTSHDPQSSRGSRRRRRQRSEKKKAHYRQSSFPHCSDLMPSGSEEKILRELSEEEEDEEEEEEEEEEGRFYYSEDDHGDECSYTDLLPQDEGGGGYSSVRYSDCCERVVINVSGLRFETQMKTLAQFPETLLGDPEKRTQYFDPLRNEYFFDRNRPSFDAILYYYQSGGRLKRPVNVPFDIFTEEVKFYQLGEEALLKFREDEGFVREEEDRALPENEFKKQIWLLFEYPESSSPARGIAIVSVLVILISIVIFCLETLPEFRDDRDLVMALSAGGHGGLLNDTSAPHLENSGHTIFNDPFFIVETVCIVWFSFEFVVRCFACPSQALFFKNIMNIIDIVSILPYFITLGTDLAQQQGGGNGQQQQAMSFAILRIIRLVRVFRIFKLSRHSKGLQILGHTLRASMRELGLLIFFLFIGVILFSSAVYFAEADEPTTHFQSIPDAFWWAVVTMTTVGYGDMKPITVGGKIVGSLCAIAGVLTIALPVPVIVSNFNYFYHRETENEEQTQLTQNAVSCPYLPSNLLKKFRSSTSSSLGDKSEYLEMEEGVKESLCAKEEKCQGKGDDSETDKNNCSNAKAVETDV
T1 sequence (Q63881 whole entry): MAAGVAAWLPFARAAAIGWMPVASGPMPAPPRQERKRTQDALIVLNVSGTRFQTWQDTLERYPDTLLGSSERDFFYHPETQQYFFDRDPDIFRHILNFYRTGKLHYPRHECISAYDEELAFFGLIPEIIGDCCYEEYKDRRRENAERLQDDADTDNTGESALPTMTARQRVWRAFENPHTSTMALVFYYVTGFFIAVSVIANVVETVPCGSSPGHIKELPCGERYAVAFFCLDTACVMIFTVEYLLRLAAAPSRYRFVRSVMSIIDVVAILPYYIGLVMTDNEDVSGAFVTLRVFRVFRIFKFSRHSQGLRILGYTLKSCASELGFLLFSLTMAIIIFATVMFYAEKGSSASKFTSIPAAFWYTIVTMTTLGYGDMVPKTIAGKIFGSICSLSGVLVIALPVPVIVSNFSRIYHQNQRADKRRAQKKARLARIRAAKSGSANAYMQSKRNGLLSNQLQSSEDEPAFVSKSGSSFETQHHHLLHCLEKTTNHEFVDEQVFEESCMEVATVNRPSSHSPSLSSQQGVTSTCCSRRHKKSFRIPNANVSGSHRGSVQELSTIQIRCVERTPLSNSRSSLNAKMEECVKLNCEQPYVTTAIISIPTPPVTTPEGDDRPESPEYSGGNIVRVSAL
T5 sequence (P15388 whole entry): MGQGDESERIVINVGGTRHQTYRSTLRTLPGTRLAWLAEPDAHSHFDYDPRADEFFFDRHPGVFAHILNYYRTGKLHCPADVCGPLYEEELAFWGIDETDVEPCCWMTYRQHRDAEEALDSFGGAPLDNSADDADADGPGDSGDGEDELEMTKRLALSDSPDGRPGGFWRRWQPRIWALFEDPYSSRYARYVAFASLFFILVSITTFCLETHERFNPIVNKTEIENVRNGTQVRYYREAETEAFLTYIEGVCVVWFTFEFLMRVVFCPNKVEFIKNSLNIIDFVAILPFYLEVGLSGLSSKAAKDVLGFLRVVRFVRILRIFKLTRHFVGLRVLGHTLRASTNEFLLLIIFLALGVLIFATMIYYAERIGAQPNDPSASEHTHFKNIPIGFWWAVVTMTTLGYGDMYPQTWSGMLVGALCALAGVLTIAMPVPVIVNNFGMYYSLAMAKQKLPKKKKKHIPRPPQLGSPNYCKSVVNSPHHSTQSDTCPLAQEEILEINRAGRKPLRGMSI
T3 sequence (P22460 whole entry): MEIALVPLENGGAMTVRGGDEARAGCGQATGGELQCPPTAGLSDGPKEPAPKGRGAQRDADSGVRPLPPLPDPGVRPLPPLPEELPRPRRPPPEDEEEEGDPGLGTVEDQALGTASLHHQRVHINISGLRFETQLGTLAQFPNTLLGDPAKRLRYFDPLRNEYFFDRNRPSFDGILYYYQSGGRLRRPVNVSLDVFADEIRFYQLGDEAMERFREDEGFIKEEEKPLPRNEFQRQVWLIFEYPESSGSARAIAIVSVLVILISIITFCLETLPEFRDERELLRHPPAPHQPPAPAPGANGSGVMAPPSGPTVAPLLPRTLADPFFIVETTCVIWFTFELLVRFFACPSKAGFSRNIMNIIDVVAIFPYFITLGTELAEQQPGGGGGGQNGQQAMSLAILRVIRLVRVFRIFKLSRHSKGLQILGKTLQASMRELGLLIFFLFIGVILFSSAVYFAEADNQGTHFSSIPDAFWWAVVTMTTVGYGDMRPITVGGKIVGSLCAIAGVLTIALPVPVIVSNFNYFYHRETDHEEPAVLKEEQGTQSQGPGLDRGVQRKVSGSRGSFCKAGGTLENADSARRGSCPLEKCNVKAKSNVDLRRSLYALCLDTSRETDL

## Clc1ccccc1C(c1ccccc1)(c1ccccc1)n1cccn1 [Compound T34, 1-[(2-Chlorophenyl)diphenylmethyl]-1H-pyrazole]
[1]
  Kd: 6 ± 0.87 µM
[2]
  Kd: 4.5 ± 0.52 µM
[3]
  Block of COS-7 (Cl): no effect at 10 μM
[4]
  Kd: 7 ± 0.62 µM
[5]
  Kd: 8 ± 0.6 µM
[6]
  logP: 4
[7]; 7-day study
  clinical appearance: all animals appeared clinically normal
  mortality: no mortality
[7]; day 1
  body weight on day 1: 17.8 g
[7]; day 7
  body weight on day 7: 27.0 g
[8]
  Kd: 30 ± 5 µM
[9]; 2 μM
  percentage of dead cells (PI uptake): 10.8%
[9]; 5 μM
  percentage of dead cells (PI uptake): 10.8%
[10]; 2 μM
  percentage of dead cells (PI uptake): 15.8%
[10]; 5 μM
  percentage of dead cells (PI uptake): 12.8%
[11]; 2 μM
  percentage of dead cells (PI uptake): 2.5%
[11]; 5 μM
  percentage of dead cells (PI uptake): 3.2%
[12]; 2 μM
  percentage of dead cells (PI uptake): 10.9%
[12]; 5 μM
  percentage of dead cells (PI uptake): 5.9%
[13]
  Kd: 9.5 ± 1 µM
[14]
  Kd: 7.5 ± 0.41 µM
[15]
  Kd: 5 ± 0.35 µM
[16]
  cell viability in the ten cell lines examined: did not reduce cell viability
[17]
  Block of rKir2.1: no effect at 10 μM
[18]; 2 μM
  percentage of dead cells (PI uptake): 7.9%
[18]; 5 μM
  percentage of dead cells (PI uptake): 8.8%
